Reference: ChEMBL document CHEMBL1138979, “From pyrroles to pyrrolo[1,2-a]pyrazinones: a new class of mGluR1 antagonists” (Bioorg Med Chem Lett, 2006)
pIC50: −log10 of the molar value.

Assays:
[1] = biological target: T1, Metabotropic glutamate receptor 1 (Rattus norvegicus, UniProt P23385); assay: Inhibition of rat mGluR1a in CHO cells by CDP-DAG accumulation method; format: functional, cell-based
[2] = biological target: T1, Metabotropic glutamate receptor 1; assay: Inhibition of rat mGluR1a in CHO cells by CDP-DAG accumulation method upto 100 uM; format: functional, cell-based

T1 sequence (P23385 whole entry): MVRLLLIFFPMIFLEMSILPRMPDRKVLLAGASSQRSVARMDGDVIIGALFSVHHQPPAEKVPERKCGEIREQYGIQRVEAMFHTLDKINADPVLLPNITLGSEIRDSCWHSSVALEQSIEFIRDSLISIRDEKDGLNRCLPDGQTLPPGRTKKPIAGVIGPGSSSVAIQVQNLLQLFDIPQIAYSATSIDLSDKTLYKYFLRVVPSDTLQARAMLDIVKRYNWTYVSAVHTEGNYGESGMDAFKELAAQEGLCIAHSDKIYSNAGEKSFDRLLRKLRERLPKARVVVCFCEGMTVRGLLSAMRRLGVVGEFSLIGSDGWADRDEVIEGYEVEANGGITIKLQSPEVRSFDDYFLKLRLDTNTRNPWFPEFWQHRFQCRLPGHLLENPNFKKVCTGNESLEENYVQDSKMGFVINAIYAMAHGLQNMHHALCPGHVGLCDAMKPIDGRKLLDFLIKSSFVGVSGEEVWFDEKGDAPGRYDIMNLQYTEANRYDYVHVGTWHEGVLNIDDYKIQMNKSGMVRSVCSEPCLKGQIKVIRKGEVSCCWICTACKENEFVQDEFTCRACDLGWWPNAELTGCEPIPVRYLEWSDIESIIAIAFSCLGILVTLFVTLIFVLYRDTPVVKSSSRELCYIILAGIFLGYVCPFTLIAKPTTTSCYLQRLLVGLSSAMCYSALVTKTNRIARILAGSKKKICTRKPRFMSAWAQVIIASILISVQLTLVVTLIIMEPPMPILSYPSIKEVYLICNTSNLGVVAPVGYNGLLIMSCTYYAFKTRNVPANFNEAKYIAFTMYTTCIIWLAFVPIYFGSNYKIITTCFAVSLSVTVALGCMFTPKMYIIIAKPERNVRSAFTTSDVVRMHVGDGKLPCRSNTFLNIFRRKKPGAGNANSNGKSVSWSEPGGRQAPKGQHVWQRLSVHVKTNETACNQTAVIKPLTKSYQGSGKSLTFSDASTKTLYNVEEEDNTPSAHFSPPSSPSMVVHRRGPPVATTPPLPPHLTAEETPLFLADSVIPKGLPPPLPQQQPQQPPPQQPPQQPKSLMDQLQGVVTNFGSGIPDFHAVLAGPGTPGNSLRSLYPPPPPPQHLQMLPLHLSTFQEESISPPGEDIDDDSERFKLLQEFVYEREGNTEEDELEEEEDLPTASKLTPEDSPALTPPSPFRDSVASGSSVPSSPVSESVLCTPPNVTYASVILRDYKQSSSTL

| SMILES | pIC50 [1] | IC50 [2] |
| --- | --- | --- |
| Cc1c(C(=O)OC(C)C(C)(C)C)cn2c1C(=O)N(CCNC(=O)OC(C)(C)C)CC2 (stereo unspecified) | 6.40 |  |
| Cc1c(C(=O)OC(C)C(C)(C)C)cn2c1C(=O)N(CCCN(C)C(=O)c1ccncc1)CC2 (stereo unspecified) | 5.50 |  |
| CCNC(=O)NCCCN1CCn2cc(C(=O)OC(C)C(C)(C)C)c(C)c2C1=O (stereo unspecified) | 6.40 |  |
| COCCN1CCn2cc(C(=O)OC(C)C(C)(C)C)c(C)c2C1=O (stereo unspecified) | 6.60 |  |
| Cc1c(C(=O)OC(C)C(C)(C)C)cn2c1C(=O)N(Cc1ccccc1)CC2 (stereo unspecified) | 6.60 |  |
| C=CCN1CCn2cc(C(=O)OC(C)C(C)(C)C)c(C)c2C1=O (stereo unspecified) | 7.70 |  |
| CC(=O)NCCCN1CCn2cc(C(=O)OC(C)C(C)(C)C)c(C)c2C1=O (stereo unspecified) | 6.30 |  |
| Cc1c(C(=O)OC(C)C(C)(C)C)cn2c1C(=O)N(N1CCOCC1)CC2 (stereo unspecified) | 5.50 |  |
| Cc1c(C(=O)OC(C)C(C)(C)C)cn2c1C(=O)N(CCF)CC2 (stereo unspecified) | 7.70 |  |
| Cc1c(C(=O)OC(C)C(C)(C)C)cn2c1C(=O)N(CCCNC(=O)c1ccncc1)CC2 (stereo unspecified) | 6.40 |  |
| Cc1c(C(=O)OC(C)C(C)(C)C)cn2c1C(=O)N(CC(F)F)CC2 (stereo unspecified) | 7.60 |  |
| Cc1c(C(=O)OC(C)C(C)(C)C)cn2c1C(=O)N(CCCN1C(=O)c3ccccc3C1=O)CC2 (stereo unspecified) | 7.80 |  |
| Cc1c(C(=O)OC(C)C(C)(C)C)cn2c1C(=O)N(CCCN)CC2 (stereo unspecified) |  | Not Active |
| CCCN1CCn2cc(C(=O)OC(C)C(C)(C)C)c(C)c2C1=O (stereo unspecified) | 7.40 |  |
| Cc1c(C(=O)OC(C)C(C)(C)C)cn2c1C(=O)NCC2 (stereo unspecified) |  | Not Active |
| Cc1c(C(=O)OC(C)C(C)(C)C)cn2c1C(=O)N(CC1CC1)CC2 (stereo unspecified) | 7.70 |  |
